This test has as its target T1, Cbl-B (Homo sapiens, UniProt Q13191).
T1 construct: MSD-Based Assay for Degradation of Cbl-B in THP-1 Cells; endogenous in cells; host or cells: THP-1 (title) / Jurkat (protocol text)
The test can be described thus: MSD-based assay for degradation of Cbl-B in THP-1 cells. Format: cell-based. How it is done: MSD-Based Assay for Degradation of Cbl-B in THP-1 Cells
Assay plates were then shaken at 600 rpm for 5 minutes, followed by incubation for 24 hours in the 37° C. TC incubator. […] Cell debris was then spun down at maximum speed (about 3200 g) for 30 min and lysates frozen in the −80° C. fridge. Meanwhile, MSD plates (L15XA-3) were coated overnight at 4° C. with 1 ug/mL capture antibody (Anti-Cbl-B antibody, 246C5a and Mouse mAB, ab54362). […] Blocking buffer was 3% Blocker A (MSD, R93BA-4) in TBST. Plates were washed 3× with 150 ul/well of 1×TBST and sample lysates (70 ul/well) then added, followed by shaking for 1 hr at RT, 600 rpm. […] Plates were again washed 3× with 150 ul/well of 1×TBST, followed by addition of Secondary Detection antibody, SULFO-TAG anti-species antibody (Anti Rabbit Antibody (R32AB-5) MSD, R32AB-1) at a final concentration of 1 ug/ml and 25 uL/well, followed by shaking for 1 hr at RT, 600 rpm. Plates were again washed 3× with 150 ul/well of 1×TBST, followed by addition of 1×MSD reading buffer (MSD, R92TC-2), 150 ul/well, diluted from 4× with water.
Compound Dmax were binned into A through D as follows: A indicates >70%, B indicates 50-70%, C indicates 30-50%, D indicates <30%.

The mark [1] stands for this setting: Cbl-B degradation, Jurkat cells seeded (heading: THP-1 cells), 24 hours incubation, MSD readout.
The mark [2] stands for this setting: Cbl-B degradation, Jurkat cells seeded (heading: THP-1 cells), 24 hours incubation, MSD readout, read-out: Dmax.

Where two headings read alike, the source gives them in different places.

T1 sequence (Q13191 whole entry): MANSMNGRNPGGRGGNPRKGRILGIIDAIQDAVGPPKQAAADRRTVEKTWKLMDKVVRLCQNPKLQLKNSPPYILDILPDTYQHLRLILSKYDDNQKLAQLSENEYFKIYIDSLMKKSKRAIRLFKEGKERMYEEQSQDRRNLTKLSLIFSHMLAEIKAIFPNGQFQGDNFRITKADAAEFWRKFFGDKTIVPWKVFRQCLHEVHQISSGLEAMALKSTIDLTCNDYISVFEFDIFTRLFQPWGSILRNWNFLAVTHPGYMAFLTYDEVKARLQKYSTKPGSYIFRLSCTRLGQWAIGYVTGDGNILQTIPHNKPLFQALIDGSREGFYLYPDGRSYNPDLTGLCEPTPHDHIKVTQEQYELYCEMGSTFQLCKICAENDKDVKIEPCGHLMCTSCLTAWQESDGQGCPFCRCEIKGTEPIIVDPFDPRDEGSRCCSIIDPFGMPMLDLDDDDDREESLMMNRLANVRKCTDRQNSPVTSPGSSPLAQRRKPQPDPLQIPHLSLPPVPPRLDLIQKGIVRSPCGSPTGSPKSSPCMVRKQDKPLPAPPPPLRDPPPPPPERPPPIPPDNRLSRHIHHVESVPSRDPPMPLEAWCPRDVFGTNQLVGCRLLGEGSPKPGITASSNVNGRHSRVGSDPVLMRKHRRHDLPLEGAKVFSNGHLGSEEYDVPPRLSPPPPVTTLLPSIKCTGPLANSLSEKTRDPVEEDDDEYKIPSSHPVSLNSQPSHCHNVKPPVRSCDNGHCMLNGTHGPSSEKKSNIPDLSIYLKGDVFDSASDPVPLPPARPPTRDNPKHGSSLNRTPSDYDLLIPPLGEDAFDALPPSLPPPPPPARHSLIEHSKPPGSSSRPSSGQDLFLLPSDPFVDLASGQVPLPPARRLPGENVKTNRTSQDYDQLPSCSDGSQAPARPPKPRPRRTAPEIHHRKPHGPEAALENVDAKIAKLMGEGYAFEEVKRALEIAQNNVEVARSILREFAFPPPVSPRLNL

Consider `CN(CCCN1CCN(Cc2cc(C(F)(F)F)c3cn(-c4cccc([C@H](c5nncn5C)C5CCC5)c4)c(=O)n3c2)CC1)C(=O)c1ccc(N2CCN(c3ccc4c(c3)CN([C@H]3CCC(=O)NC3=O)C4=O)CC2)cc1` (single isomer, unassigned) [Compound 124], for which the DC50 under setting [1] was below 30 nM. Further, the Dmax under setting [2] was above 70%.

For the compound `Cn1cnnc1[C@@H](c1cccc(-n2cc3c(C(F)(F)F)cc(CN4CCN(CCc5ccc(N6CCN(c7ccc8c(c7)CN([C@@H]7CCC(=O)NC7=O)C8=O)CC6)cc5)CC4)cn3c2=O)c1)C1CCC1` (single isomer, unassigned) [Compound 125], the DC50 under setting [1] lay within 30 to 300 nM. Also, the maximal degradation (Dmax) under setting [2] was 50 to 70%.

Under setting [1], `Cn1cnnc1[C@@H](c1cccc(-n2cc3c(C(F)(F)F)cc(CN4CCN(CCc5ccc(N6CCN(c7ccc8c(c7)CN([C@H]7CCC(=O)NC7=O)C8=O)CC6)cc5)CC4)cn3c2=O)c1)C1CCC1` (single isomer, unassigned) [Compound 126] came in with a 50% degradation concentration (DC50) below 30 nM. In addition, the greatest degradation seen (Dmax) under setting [2] is above 70%.

`Cn1cnnc1[C@@H](c1cccc(-n2cc3c(C(F)(F)F)cc(CN4CCC[C@H](OCCc5ccc(CN6CCN(c7ccc8c(c7)CN([C@@H]7CCC(=O)NC7=O)C8=O)CC6)cc5)C4)cn3c2=O)c1)C1CCC1` (single isomer, unassigned) [Compound 127] gave a 50% degradation concentration (DC50) under setting [1] above 10000 nM. The maximal degradation (Dmax) under setting [2] was below 30%.

The compound `Cn1cnnc1[C@@H](c1cccc(-n2cc3c(C(F)(F)F)cc(CN4CCC[C@H](OCCc5ccc(CN6CCN(c7ccc8c(c7)CN([C@H]7CCC(=O)NC7=O)C8=O)CC6)cc5)C4)cn3c2=O)c1)C1CCC1` (single isomer, unassigned) [Compound 128] displayed a DC50 under setting [1] below 30 nM. Also, the Dmax under setting [2] lay in the range of 50 to 70%.

With `Cn1cnnc1[C@@H](c1cccc(-n2cc3c(C(F)(F)F)cc(CN4CCN(C(=O)CN5CCC(CN6CCN(c7ccc8c(c7)CN([C@H]7CCC(=O)NC7=O)C8=O)CC6)CC5)CC4)cn3c2=O)c1)C1CCC1` (single isomer, unassigned) [Compound 130], the DC50 under setting [1] lay in the range of 30 to 300 nM. Under setting [2], the Dmax was 50 to 70%.

Under setting [1], `Cn1cnnc1CC1(c2cccc(-n3cc4c(C(F)(F)F)cc(CN5CCN(C(=O)CN6CCC(CN7CCN(c8ccc9c(c8)CN([C@@H]8CCC(=O)NC8=O)C9=O)CC7)CC6)CC5)cn4c3=O)c2)COC1` (single isomer, unassigned) [Compound 131] gave a 50% degradation concentration (DC50) above 10000 nM. Moreover, the Dmax under setting [2] was 30 to 50%.

`Cn1cnnc1CC1(c2cccc(-n3cc4c(C(F)(F)F)cc(CN5CCN(C(=O)CN6CCC(CN7CCN(c8ccc9c(c8)CN([C@H]8CCC(=O)NC8=O)C9=O)CC7)CC6)CC5)cn4c3=O)c2)COC1` (single isomer, unassigned) [Compound 132] gave a DC50 under setting [1] below 30 nM. Also, the Dmax under setting [2] is 50 to 70%.

With `Cn1cnnc1CC1(c2cccc(-n3cc4c(C(F)(F)F)cc(CN5CCN(CC(=O)N6CCC(CN7CCN(c8ccc9c(c8)CN([C@@H]8CCC(=O)NC8=O)C9=O)CC7)CC6)CC5)cn4c3=O)c2)COC1` (single isomer, unassigned) [Compound 133], the DC50 under setting [1] fell in the range of 30 to 300 nM. For the same compound, the maximal degradation (Dmax) under setting [2] was above 70%.

`Cn1cnnc1CC1(c2cccc(-n3cc4c(C(F)(F)F)cc(CN5CCN(CC(=O)N6CCC(CN7CCN(c8ccc9c(c8)CN([C@H]8CCC(=O)NC8=O)C9=O)CC7)CC6)CC5)cn4c3=O)c2)COC1` (single isomer, unassigned) [Compound 134] returned a DC50 under setting [1] below 30 nM. Also, under setting [2], the Dmax was above 70%.

In the case of `CN(CCN(C)C(=O)c1ccc(N2CCN(c3ccc4c(c3)CN([C@@H]3CCC(=O)NC3=O)C4=O)CC2)cc1)Cc1cc(C(F)(F)F)c2cn(-c3cccc([C@H](c4nncn4C)C4CCC4)c3)c(=O)n2c1` (single isomer, unassigned) [Compound 139], the 50% degradation concentration (DC50) under setting [1] is 300 to 1000 nM.

As to `CN(CCN(C)C(=O)c1ccc(N2CCN(c3ccc4c(c3)CN([C@H]3CCC(=O)NC3=O)C4=O)CC2)cc1)Cc1cc(C(F)(F)F)c2cn(-c3cccc([C@H](c4nncn4C)C4CCC4)c3)c(=O)n2c1` (single isomer, unassigned) [Compound 140], the half-maximal degradation concentration (DC50) under setting [1] is 30 to 300 nM.

Under setting [1], `CN(CCN(C)C(=O)c1cc(C(F)(F)F)c2cn(-c3cccc([C@H](c4nncn4C)C4CCC4)c3)c(=O)n2c1)C(=O)c1ccc(N2CCN(c3ccc4c(c3)CN([C@@H]3CCC(=O)NC3=O)C4=O)CC2)cc1` (single isomer, unassigned) [Compound 141] showed a DC50 above 10000 nM. Further, the Dmax under setting [2] is below 30%.

In the case of `CN(CCN(C)C(=O)c1cc(C(F)(F)F)c2cn(-c3cccc([C@H](c4nncn4C)C4CCC4)c3)c(=O)n2c1)C(=O)c1ccc(N2CCN(c3ccc4c(c3)CN([C@H]3CCC(=O)NC3=O)C4=O)CC2)cc1` (single isomer, unassigned) [Compound 142], the 50% degradation concentration (DC50) under setting [1] is above 10000 nM. Besides, the greatest degradation seen (Dmax) under setting [2] was in the range of 30 to 50%.

On to `Cn1cnnc1[C@@H](c1cccc(-n2cc3c(C(F)(F)F)cc(CN4CCC[C@@H](OCCc5ccc(CN6CCN(c7ccc8c(c7)CN([C@@H]7CCC(=O)NC7=O)C8=O)CC6)cc5)C4)cn3c2=O)c1)C1CCC1` (single isomer, unassigned) [Compound 143], for which the half-maximal degradation concentration (DC50) under setting [1] fell in the range of 300 to 1000 nM. For the same compound, the Dmax under setting [2] fell in the range of 30 to 50%.

`Cn1cnnc1[C@@H](c1cccc(-n2cc3c(C(F)(F)F)cc(CN4CCC[C@@H](OCCc5ccc(CN6CCN(c7ccc8c(c7)CN([C@H]7CCC(=O)NC7=O)C8=O)CC6)cc5)C4)cn3c2=O)c1)C1CCC1` (single isomer, unassigned) [Compound 144] registered a DC50 under setting [1] below 30 nM. For the same compound, under setting [2], the Dmax is 50 to 70%.

For the compound `CN(CCOC1CCN(Cc2cc(C(F)(F)F)c3cn(-c4cccc([C@H](c5nncn5C)C5CCC5)c4)c(=O)n3c2)CC1)C(=O)c1ccc(N2C3CC2CN(c2ccc4c(c2)CN([C@@H]2CCC(=O)NC2=O)C4=O)C3)cc1` (single isomer, unassigned) [Compound 145], the DC50 under setting [1] was above 10000 nM. The compound also showed a maximal degradation (Dmax) (THP-1) of 30 to 50%.

Consider `CN(CCOC1CCN(Cc2cc(C(F)(F)F)c3cn(-c4cccc([C@H](c5nncn5C)C5CCC5)c4)c(=O)n3c2)CC1)C(=O)c1ccc(N2C3CC2CN(c2ccc4c(c2)CN([C@H]2CCC(=O)NC2=O)C4=O)C3)cc1` (single isomer, unassigned) [Compound 146], for which the DC50 under setting [1] is above 10000 nM. Further, under setting [2], the maximal degradation (Dmax) is below 30%.

The compound `CN(CCOCc1cc(C(F)(F)F)c2cn(-c3cccc([C@H](c4nncn4C)C4CCC4)c3)c(=O)n2c1)C(=O)c1ccc(N2CCN(c3ccc4c(c3)CN([C@@H]3CCC(=O)NC3=O)C4=O)CC2)cc1` (single isomer, unassigned) [Compound 147] yielded a DC50 under setting [1] above 10000 nM. Also, the Dmax under setting [2] is below 30%.

Turning to `CN(CCOCc1cc(C(F)(F)F)c2cn(-c3cccc([C@H](c4nncn4C)C4CCC4)c3)c(=O)n2c1)C(=O)c1ccc(N2CCN(c3ccc4c(c3)CN([C@H]3CCC(=O)NC3=O)C4=O)CC2)cc1` (single isomer, unassigned) [Compound 148], under setting [1], the 50% degradation concentration (DC50) lay in the range of 30 to 300 nM. Also, the maximal degradation (Dmax) under setting [2] was in the range of 30 to 50%.

`Cn1cnnc1[C@@H](c1cccc(-n2cc3c(C(F)(F)F)cc(CN4CCC(OCc5cccc(C(=O)N6CCN(c7ccc8c(c7)CN([C@@H]7CCC(=O)NC7=O)C8=O)CC6)c5)CC4)cn3c2=O)c1)C1CCC1` (single isomer, unassigned) [Compound 153] registered a half-maximal degradation concentration (DC50) under setting [1] above 10000 nM. Moreover, under setting [2], the greatest degradation seen (Dmax) is below 30%.

Under setting [1], `Cn1cnnc1[C@@H](c1cccc(-n2cc3c(C(F)(F)F)cc(CN4CCC(OCc5cccc(C(=O)N6CCN(c7ccc8c(c7)CN([C@H]7CCC(=O)NC7=O)C8=O)CC6)c5)CC4)cn3c2=O)c1)C1CCC1` (single isomer, unassigned) [Compound 154] had a DC50 of 300 to 1000 nM. Also, the maximal degradation (Dmax) under setting [2] was 30 to 50%.

Compound `Cn1cnnc1[C@@H](c1cccc(-n2cc3c(C(F)(F)F)cc(CN4CCC(OCc5ccc(N6CCN(c7ccc8c(c7)CN([C@@H]7CCC(=O)NC7=O)C8=O)CC6)cc5)CC4)cn3c2=O)c1)C1CCC1` (single isomer, unassigned) [Compound 155] showed a DC50 under setting [1] above 10000 nM. Moreover, the Dmax under setting [2] is below 30%.

Compound `Cn1cnnc1[C@@H](c1cccc(-n2cc3c(C(F)(F)F)cc(CN4CCC(OCc5ccc(N6CCN(c7ccc8c(c7)CN([C@H]7CCC(=O)NC7=O)C8=O)CC6)cc5)CC4)cn3c2=O)c1)C1CCC1` (single isomer, unassigned) [Compound 156] came in with a DC50 under setting [1] below 30 nM. The Dmax under setting [2] was in the range of 50 to 70%.

Compound `Cn1cnnc1[C@@H](c1cccc(-n2cc3c(C(F)(F)F)cc(CN4CCC(OCc5ccc(C(=O)N6CCN(c7ccc8c(c7)CN([C@@H]7CCC(=O)NC7=O)C8=O)CC6)cc5)CC4)cn3c2=O)c1)C1CCC1` (single isomer, unassigned) [Compound 157] showed a half-maximal degradation concentration (DC50) under setting [1] above 10000 nM. Also, the Dmax under setting [2] is below 30%.

In the case of `Cn1cnnc1[C@@H](c1cccc(-n2cc3c(C(F)(F)F)cc(CN4CCC(OCc5ccc(C(=O)N6CCN(c7ccc8c(c7)CN([C@H]7CCC(=O)NC7=O)C8=O)CC6)cc5)CC4)cn3c2=O)c1)C1CCC1` (single isomer, unassigned) [Compound 158], under setting [1], the DC50 is below 30 nM. In addition, the Dmax under setting [2] is above 70%.

As usually defined, the DC50 is the concentration giving 50% degradation. A low value points to degradation at low concentration. As a reminder, the Dmax is the greatest extent of degradation seen.
